This note sets out measurements from patent publication US20250011366A1, “Prodrugs of Antibiotic Teixobactin” (priority 2021, published 2025).

Data set [1] can be described thus: Qualitative gelation assay in PBS. It counts as physicochemical. To be noted: 10 mg/mL DMSO stock added to 1×PBS pH 7.4. As to the method: Gel formation of the teixobactin analogues was compared to that of the O-acyl isopeptide prodrugs in a qualitative gelation assay. In this experiment, a 10 mg/mL stock solution of the peptide trifluoroacetate salt in DMSO is added to 1×PBS buffer at pH 7.4 and gel formation is observed over time. Crystal violet is added to the PBS buffer to facilitate the visualization of the gels by providing contrast. […] In contrast, when the Lys10-teixobactin prodrugs are added, no immediate gel formation occurs.
Gelation assays of the O-acyl isopeptide prodrug analogues of teixobactin were performed using procedures previously reported. See K. Chen, et al., Chem. Commun. 2017, 53, 11357-11359, the disclosure of which is herein incorporated by reference.

The subject of another data set is human red blood cells. The data set is described as follows: Hemolytic assay. It counts as cell-based. As to the method: The hemolytic activity of the O-acyl isopeptide prodrugs and the corresponding teixobactin analogues were evaluated with human red blood cells (FIGS. 9A to 9H). Triton X-100 and melittin were used as positive controls and vancomycin and water (vehicle) were used as negative controls in the hemolysis assays. […] In contrast, 0.002% polysorbate 80 had no effect on the hemolytic activity of Lys10-teixobactin and Leu10-teixobactin and little effect on the corresponding O-acyl isopeptide prodrug analogues. When the hemolysis assays were performed with teixobactin, no hemolysis was observed up to 100 μg/mL without polysorbate 80 and modest hemolysis (4%) at 100 μg/mL with 0.002% polysorbate 80.
Preparation of Phosphate-Buffered Saline (PBS) Buffers. A 10×PBS buffer was prepared by dissolving 8.9 g of Na2HPO4, 1.2 g KH2PO4, 40 g NaCl, and 1 g KCl in 500 mL of 18 MO deionized water. The solution was stirred until the buffer salts were completely dissolved. The pH of the 10×PBS buffer was adjusted to 7.4 using either 1 M HCl or 1 M NaOH and was subsequently sterile filtered. To create a 1×PBS buffer, the 10×PBS buffer was diluted 10-fold using 18 MO deionized water. Another 1×PBS buffer was made, supplemented with 0.002% polysorbate 80.
Preparation of human red blood cells. Whole human blood was stored in a 4° C. in K2 EDTA to prevent coagulation. On the day of cell treatment, the blood was centrifuged at 800×g for 5 min at 4° C. to isolate red blood cells (RBCs). The plasma layer was then removed and discarded. Approximately 3 mL of 150 mM NaCl solution was added to the RBCs and mixed gently by inversion. The RBCs were centrifuged at 800×g for 8 min at 4° C. and the supernatant was discarded. An additional wash with 150 mM NaCl was performed, centrifuged at 800×g for 8 min at 4° C. and the supernatant was discarded. 2 mL of whole RBCs were transferred to a 15-mL conical tube. Approximately 4 mL of 1×PBS was added to the RBCs and inverted gently to mix. The RBCs were centrifuged at 800×g for 8 min at 4° C. […]
Hemolytic assay readout. […]

For data set [2], the system named is four Gram-positive bacteria (methicillin-susceptible and methicillin-resistant S. aureus, B. subtilis, S. epidermidis). It counts as cell-based. As to the method: The antibiotic activity of the teixobactin O-acyl isopeptide prodrugs was evaluated using minimum inhibitory concentration (MIC) assays with four Gram-positive bacteria and compared the MIC values to those of the parent teixobactin analogues. Methicillin-susceptible and methicillin-resistant S. aureus were used as representative pathogens and B. subtilis and S. epidermidis as additional Gram-positive bacteria, and E. coli was used as a Gram-negative control. The activities of the teixobactin analogues and prodrugs were compared to those of teixobactin and vancomycin.
Bacillus subtilis (ATCC 6051), Staphylococcus epidermidis (ATCC 14990), Staphylococcus aureus (ATCC 29213), and Escherichia coli(ATCC 10798) were cultured from glycerol stocks in Mueller-Hinton broth overnight in a shaking incubator at 37° C. Staphylococcus aureus (ATCC 700698) was cultured from a glycerol stock in brain heart infusion broth overnight in a shaking incubator at 37° C. An aliquot of a 1 mg/mL antibiotic stock solution in DMSO was diluted with appropriate culture media to make a 64 μg/mL solution. […] The overnight cultures of each bacterium were diluted with Mueller-Hinton broth to an OD600 of 0.075 as measured for 200 μL in a 96-well plate. […] The OD600 were measured using a 96-well UV/vis plate reader (MultiSkan GO, Thermo Scientific). […]

For the compound `CC[C@H](C)[C@H](NC(=O)[C@@H](Cc1ccccc1)NC)C(=O)N[C@@H](CO)C(=O)N[C@H](CCC(N)=O)C(=O)N[C@@H](C(=O)N[C@H](C(=O)N[C@@H](CO)C(=O)N[C@H]1C(=O)N[C@@H](C)C(=O)N[C@@H](CCCNC(=N)N)C(=O)N[C@@H]([C@@H](C)CC)C(=O)O[C@H]1C)[C@@H](C)CC)[C@@H](C)CC` [Arg10-teixobactin], the “gel formation immediately upon addition to PBS” value in data set [1] is listed as “form gels immediately”. As for `CC[C@H](C)[C@H](NC(=O)[C@@H](Cc1ccccc1)NC)C(=O)N[C@@H](CO)C(=O)N[C@H](CCC(N)=O)C(=O)N[C@@H](C(=O)N[C@H](C(=O)N[C@@H](CO)C(=O)N[C@H]1C(=O)N[C@@H](C)C(=O)N[C@@H](CC(C)C)C(=O)N[C@@H]([C@@H](C)CC)C(=O)O[C@H]1C)[C@@H](C)CC)[C@@H](C)CC` [Leu10-teixobactin], the “gel formation immediately upon addition to PBS” value in data set [1] was “form gels immediately”. Besides, the “effect of 0.002% polysorbate 80 on hemolytic activity” value in the data set with human red blood cells is given as “no effect”.

Broadly, the MIC is the lowest concentration found to suppress growth. A higher MIC goes with a less susceptible organism. In data set [2], `CC[C@H](C)[C@H](NC(=O)[C@@H](Cc1ccccc1)NC)C(=O)N[C@@H](CO)C(=O)N[C@H](CCC(N)=O)C(=O)N[C@@H](C(=O)N[C@H](C(=O)N[C@@H](CO)C(=O)N[C@H]1C(=O)N[C@@H](C)C(=O)N[C@@H](CCCCN)C(=O)N[C@@H]([C@@H](C)CC)C(=O)O[C@H]1C)[C@@H](C)CC)[C@@H](C)CC` [Lys10-teixobactin] displayed an MIC of 2 to 4 µg/mL. In addition, the “gel formation immediately upon addition to PBS” value in data set [1] was “large gelatinous aggregates form immediately”. The “effect of 0.002% polysorbate 80 on hemolytic activity” value in the data set on human red blood cells is “no effect”. With `CN[C@H](CC(C)C)C(=O)N[C@H]1C(=O)N[C@@H](CC(N)=O)C(=O)N[C@H]2C(=O)N[C@H]3C(=O)N[C@H](C(=O)N[C@H](C(=O)O)c4cc(O)cc(O)c4-c4cc3ccc4O)[C@H](O)c3ccc(c(Cl)c3)Oc3cc2cc(c3O[C@@H]2O[C@H](CO)[C@@H](O)[C@H](O)[C@H]2O[C@H]2C[C@](C)(N)[C@H](O)[C@H](C)O2)Oc2ccc(cc2Cl)[C@H]1O` [vancomycin], in the data set with human red blood cells (concentrations up to 100 μg/mL, with and without 0.002% polysorbate 80), the hemolysis entry is listed as “No hemolysis”.
